The record followed here is patent US11484603B2, “Methods, systems, and compositions for inhibiting virulence of A/E family pathogens” (ARIZONA BOARD OF REGENTS ON BEHALF OF THE UNIVERSITY OF …, priority 2017, dated 2022).

The subject of one assay is mitochondrial network. Description: CCCP-induced perturbation of the mitochondrial network (COXIV/DAPI stain). The class given is cell-based. Particulars: compared to mock-treated controls. The text has this:
In transfected cells, EspZ prevented COOP-induced perturbation of the mitochondrial network (compared to control vector-transfected cells). Red=COXIV (mitochondrial stain); blue=DAPI stain.
The uncoupler carbonyl cyanide m-chlorophenylhydrazone (COOP) induces Fis1- and Drp1-dependent mitochondrial fission. In transfected cells, EspZ prevented COOP-induced perturbation of the mitochondrial network (see FIG. 10). Thus, EspZ may be necessary and sufficient for inhibiting mitochondrial fission.

The test system of assay [1] is EspZ dimerization/oligomerization. Description: ToxLuc system (ToxR-TM-MBP fusions, ctx promoter luciferase reporter). Format: cell-based, EPEC. To be noted: TM2 derivatives expressed as ToxR-TM-MBP fusions in E. coli ΔmalE strain (NT326); baseline Ala17.
Excerpt: (§1) Directional targeting of the TM region to the inner membrane allows the periplasmic MBP domain to complement the growth of the ΔmalE strain in medium containing maltose as the sole carbon source. […] TM domain interactions induce dimerization of cytoplasmic ToxR domains, allowing the transcriptional activator to bind to the ctx promoter and promote expression of the downstream luciferase reporter. […] A 17-residue poly-alanine stretch (Ala17) was used as a baseline TM control for nonspecific ToxR-dependent luciferase activation. A GpA GXXXG mutant (G831) was impaired for luciferase activation (REF).
as §1, with “Membrane-localized GXXXG sequences can promote homo- and hetero-typic interactions between proteins. Referring to FIG. 5A and FIG. 5B, a ToxLuc system was used to verify targeting of the predicted EspZ TM regions to the membrane and to assess the role of GXXXG sequences in EspZ dimerization/oligomerization. […] Western blot analyses confirmed robust expression of all ToxR-TM-MBP fusion proteins. Directional” for “Directional”, “activation. As noted previously, a” for “activation. A”, “mutant (G83I)” for “mutant (G831)”

As for `N#CC(C#N)=NNc1cccc(Cl)c1` [CCCP, carbonyl cyanide m-chlorophenylhydrazone], the “effect on mitochondrial network” value in the assay on mitochondrial network was “causes fragmentation of the mitochondrial network and its retraction towards the nucleus”.
Regarding “LGLGIAAGVLGLVTTVAGGLAMK (Artificial inhibitor peptide based on EspZ) [G85L, targeting peptide, EspZ TM2 derivative]”, the “luciferase activity (TM self-association)” value in assay [1] was “reduced luciferase activity to near-baseline levels”.
On the same count and under the same terms, next, “LGLGIAALVLGGVTTVAGGLAMK (Artificial inhibitor peptide based on EspZ) [G81L, targeting peptide, EspZ TM2 derivative]”: “reduced luciferase activity to near-baseline levels”.
In the case of “LGLLIAALVLGLVTTVAGGLAMK (Artificial inhibitor peptide based on EspZ) [all three G residues, targeting peptide, EspZ TM2 derivative]”, the “luciferase activity (TM self-association)” value in assay [1] is given as “abrogated luciferase expression”.
